The source of these data is publication PMC10142904, “Identification of Novel Cyclooxygenase-1 Selective Inhibitors of Thiadiazole-Based Scaffold as Potent Anti-Inflammatory Agents with Safety Gastric and Cytotoxic Profile” (Molecules, 2023).

Structures are written as SMILES. Values joined by “and” are separate entries in the source; they are usually repeats but may differ in a detail not shown here. Identical values can stand only once. Like-named read-outs stand apart in the source and are kept apart here.

The conditions of data set [1]: cited from earlier work.
Data set [2] relates to carrageenan-induced mouse paw edema. In words: Carrageenan-induced mouse paw edema. The format is in vivo. Conditions: i.p., 0.028 mmol/kg, paw weight after 3.5 h; for inhibition in vivo at 28 µmol/kg: Mus musculus, ip, 3.5 h. As for the experimental part:
All tested compounds were administrated through i.p. with a molar concentration of 0.028 mmol/kg.
The animals were weighed and then randomly divided into control, standard and test groups with each group including 10 mice. […] Edema was induced by injecting 0.1 mL of 1% aqueous solution of carrageenan subcutaneously to the sub-plantar region of the right hind paw, utilizing the left paw as control. The assessed derivatives, in suspended water/Tween-80, were injected i.p. […] After 3.5 h, the hind paws were excised and were weighed separately. The edema paws were estimated as paw weight increase.

For a further data set, the system named is gastric mucosa. Put plainly: Ulcerogenic activity (gastric lesions after oral dosing). The format is in vivo. Conditions: mice, oral 0.028 mmol/kg, 3 successive days, N = 5. As for the experimental part: Gastric toxicity was conducted through oral administration of 0.028 mmol/kg of the tested derivatives on mice, and the extent of lesions of the gastric mucosa was measured. […] This study clearly indicated the superiority of our compounds over indomethacin concerning ulcerogenic liability.
The ulcerogenicity effect of compounds was assessed on male mice by following the reported protocol. Male mice weighing 22–25 g were separated into six groups (five animals in each group). […] The placebo control group was administrated saline with few drops of Tween-80. The animals were sacrificed 4 h after the last dose, and the stomachs were inspected for stomach lesions. The scoring of ulcerogenicity was expressed in terms of: average number of ulcers per stomach, percentage incidence of ulcers and percent incidence of ulcer divided by 10. The ulcer index was calculated using the sum of the three above values.

A further data set deals with T1, soybean LOX.
T1 construct: purchased Sigma (St. Louis, MO, USA)
Put plainly: LOX activity inhibition. It counts as biochemical. From the text:
κ-Carrageenan and lipoxygenase type I-B from soybean were obtained from Sigma (St. Louis, MO, USA). COX inhibition was studied utilizing the kit of “COX Inhibitor Screening Assay” (Cayman Chemical Co., Ann Arbor, MI, USA). In vivo tests, male and female (23–30 g) mice R”’ were stored in the Centre of the School of Veterinary Medicine (EL54-BIO42), (Aristotle University of Thessaloniki, Thessaloniki, Greek), licensed by the state official veterinary authorities (presidential degree 56/2013, in standardization with the European Directive 2010/63/EEC). The experimental protocols were approved by the Committee of Animal Ethics of the Prefecture of Central Macedonia (no. 270079/2500).
The reaction mixture contained the final concentration (300 µΜ) of the test derivatives, dissolved in absolute ethanol (10–300 µM), or the solvent (control), soybean LOX, dissolved in 0.9% NaCl solution (250 u/mL) and sodium linoleate (100 µM), in Tris–HCl buffer, pH 9.0. The reaction was monitored for 7 min at a temperature of 28 °C, noting the absorbance (234 nm) of a conjugated diene structure, following the formation of 13-hydroperoxy-linoleic acid. The performance of the assay was validated utilizing NDGA as a standard. For the evaluation of the inhibition type, the above experiments were repeated, utilizing sodium linoleate (1 mM), which is greater than the saturating substrate concentration.

The next data set has as its target T2, ovine COX-1 (Ovis aries, UniProt P05979).
T2 construct: purchased Cayman Chemical Co., Ann Arbor, MI, USA
T2 sequence (P05979 25-600): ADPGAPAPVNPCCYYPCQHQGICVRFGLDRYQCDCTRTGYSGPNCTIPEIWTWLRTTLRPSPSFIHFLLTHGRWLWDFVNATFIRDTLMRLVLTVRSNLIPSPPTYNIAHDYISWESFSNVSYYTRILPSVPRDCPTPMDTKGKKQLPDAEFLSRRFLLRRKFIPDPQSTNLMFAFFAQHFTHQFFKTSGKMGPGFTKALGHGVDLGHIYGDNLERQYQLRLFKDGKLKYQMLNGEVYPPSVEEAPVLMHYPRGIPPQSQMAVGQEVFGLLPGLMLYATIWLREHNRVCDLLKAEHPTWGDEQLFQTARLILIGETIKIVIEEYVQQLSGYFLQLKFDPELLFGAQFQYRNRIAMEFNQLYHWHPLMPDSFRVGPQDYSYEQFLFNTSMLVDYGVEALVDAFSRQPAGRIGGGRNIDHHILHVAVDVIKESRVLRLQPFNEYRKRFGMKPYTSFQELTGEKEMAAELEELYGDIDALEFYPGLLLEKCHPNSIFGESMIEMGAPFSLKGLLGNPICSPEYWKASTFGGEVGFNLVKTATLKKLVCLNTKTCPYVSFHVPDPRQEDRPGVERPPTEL
Put plainly: COX-1 inhibition (Cayman COX Inhibitor Screening Assay). The format is biochemical. The settings on record: for IC50: read-out: COX-1 Inhibition, IC50 (μΜ). The method, then:
(§1) κ-Carrageenan and lipoxygenase type I-B from soybean were obtained from Sigma (St. Louis, MO, USA). COX inhibition was studied utilizing the kit of “COX Inhibitor Screening Assay” (Cayman Chemical Co., Ann Arbor, MI, USA).
(§2) The action of the tested derivatives on COX-1 and COX-2 inhibition was analyzed utilizing a commercial kit furnished by Cayman (Cayman Chemical Co., Ann Arbor, MI, USA) and by applying the instructions of the manufacturer. The kit utilizes human recombinant COX-2 and ovine COX-1 enzymes. […] The assay analyzes PGF2a produced by SnCl2 reduction of COX-derived PGH2.

In another data set the test system is T3, human recombinant COX-2.
T3 construct: purchased Cayman Chemical Co., Ann Arbor, MI, USA
In words: COX-2 inhibition (Cayman COX Inhibitor Screening Assay). It counts as biochemical. As for the experimental part: as §1, §2

In the next data set the test system is MRC-5 cells. In words: Cytotoxicity / cell proliferation in MRC-5 cells. The format is cell-based, human. Conditions: MRC-5 cells, 0.1, 1 and 10 μM, 48 h. The method, then:
The evaluation of cellular cytotoxicity of derivatives 3, 4, 10, 11 and 14 in normal human MRC-5 cells was accomplished at three different concentrations in cell culture, i.e., 0.1, 1 and 10 μM (Figure 7). No substantial effect on cell proliferation after 48 h of exposure was found in cultures, as the growth was ≥98% for all assessed agents by comparison with the control (untreated cells) (Figure 7).
The MRC-5 human cell line from lung fibroblast was stored and then utilized in our laboratory in a conventional manner (passage < 40). MRC-5 cells were cultured (using a humidified atmosphere enclosing 5% CO2 at 37 °C) in medium DMEM with 10% v/v FBS, 1% PS penicillin–streptomycin. The assessed derivatives were dissolved in dimethyl sulfoxide and stored at a temperature of 4 degrees centigrade. For cytotoxicity assessment, cells were seeded in 96-well culture plates at 5 × 10^4 cells/mL (initial density) and permitted to attach for at least 3 h before adding the compounds at increasing concentrations (0.1, 1 and 10 µM). […] To evaluate the cytotoxicity of each derivative, the cells were given an additional 48 h to grow before estimating their number in culture utilizing the Neubauer counting chamber (microscope observation). In every treated culture, cell growth was expressed and reported as the percentage of untreated growing cells. GraphPad Prism 6.0 program was utilized in order to accomplish statistical t-test analysis.
Figure 7 Cell proliferation assessment of MRC-5 cell lines subjected to different derivatives in cell culture. MRC-5 cell lines grown in culture were incubated separately with each of the derivatives at concentrations of 0.1, 1 and 10 μM for 48 h. The cell number was analyzed in cell cultures with microscopic techniques (Neubauer counting chamber), as reported in “Methods” and expressed as % of the proliferation of cultures involving control untreated cells. […] The diagram illustrated above and the t-test statistical analysis were performed utilizing the GraphPad Prism 6.0 program. No significant statistical difference between the control untreated culture cells with each tested derivative was attained.

`CC(C)Cc1ccc([C@H](CF)C(=O)O)cc1` [(S)-F-ibuprofen]: the “Gastric damage (in words)” value in data set [1] was “low gastric damage”.
The inhibition in vivo is the change of the read-out against control, counted positive when it falls. `O=C1N/C(=N\c2nnc(C34CC5CC(CC(C5)C3)C4)s2)S/C1=C\c1ccccc1` [Compound 1] had an inhibition in vivo at 28 µmol/kg in data set [2] of 40.8 ± 1.9%.
The same measure, in the same setting: the figure for `O=C1N/C(=N\c2nnc(C34CC5CC(CC(C5)C3)C4)s2)S/C1=C\c1ccc(F)cc1` [Compound 2] is 39.7 ± 1.6%.
The IC50 is the concentration that inhibits the measured activity by half. `O=C1NC(=Nc2nnc(C34CC5CC(CC(C5)C3)C4)s2)SC1=Cc1ccc(Br)cc1` [Compound 3]: in data set [2], the inhibition in vivo at 28 µmol/kg amounted to 62% and the “Edema Inhibition, (%)” value is 62.0 ± 1.8 %. In addition, the “Number of Animals with Ulcer” value with gastric mucosa was “nil”. Also, in the data set on soybean LOX, the “Enzymatic inhibition against LOX (in words)” value is listed as “modest enzymatic inhibition” and the “LOX Inhibition (%) 100 μΜ” value came to 42.9 ± 1.9 %. On ovine COX-1, the “COX-1 Inhibition, Inhibition (%) 200 μΜ” value is 100%; the IC50 is 1080 nM and 1120 nM. Besides, in the data set with human recombinant COX-2, the “COX-2 Inhibition, Inhibition (%) 200 μΜ” value is listed as 0%. Also, in the data set with MRC-5 cells, the “Cell growth by comparison with the control (untreated cells)” value (from here on “Cell growth by comparison”) is reported as at least 98%.
Consider `O=C1NC(=Nc2nnc(C34CC5CC(CC(C5)C3)C4)s2)SC1=Cc1ccc([N+](=O)[O-])cc1` [Compound 4], for which, in data set [2], the inhibition in vivo at 28 µmol/kg is 66.7% and the “Edema Inhibition, (%)” value is given as 66.7 ± 2.1 %. Further, the “Number of Animals with Ulcer” value in the data set on gastric mucosa is given as “nil”. Besides, in the data set on soybean LOX, the “Enzymatic inhibition against LOX (in words)” value is listed as “modest enzymatic inhibition” and the “LOX Inhibition (%) 100 μΜ” value is given as 39.8 ± 181 %. Also, at ovine COX-1, the “COX-1 Inhibition, Inhibition (%) 200 μΜ” value worked out at 100%; the IC50 is 1120 nM and 1080 nM. Also, in the data set on human recombinant COX-2, the “COX-2 Inhibition, Inhibition (%) 200 μΜ” value is recorded as 0%. For the same molecule, the “Cell growth by comparison” value in the data set on MRC-5 cells is listed as at least 98%.
In data set [2], `Cc1ccc(/C=C2\S/C(=N/c3nnc(C45CC6CC(CC(C6)C4)C5)s3)NC2=O)cc1` [Compound 5] showed an inhibition in vivo at 28 µmol/kg of 47.2 ± 1.2%.
The same measure, in the same setting: with `COc1ccc(/C=C2\S/C(=N/c3nnc(C45CC6CC(CC(C6)C4)C5)s3)NC2=O)cc1` [Compound 6] the figure was 37 ± 1.6%; with `CN(C)c1ccc(/C=C2\S/C(=N/c3nnc(C45CC6CC(CC(C6)C4)C5)s3)NC2=O)cc1` [Compound 7], 43.6 ± 1.3%.
Still for that read-out and setting: the figure for `O=C1N/C(=N\c2nnc(C34CC5CC(CC(C5)C3)C4)s2)S/C1=C\c1ccccc1[N+](=O)[O-]` [Compound 8] is 37 ± 1.4%; for `O=C1N/C(=N\c2nnc(C34CC5CC(CC(C5)C3)C4)s2)S/C1=C\c1cccc([N+](=O)[O-])c1` [Compound 9] it is 41.9 ± 1.8%.
As to `O=C1NC(=Nc2nnc(C34CC5CC(CC(C5)C3)C4)s2)SC1=Cc1cccc(F)c1F` [Compound 10, 2-{[5-(Adamantan-1-yl)-1,3,4-thiadiazol-2-yl]-imino}-5-(2,3-difluorobenzylidene)-1,3-thiazolidin-4-one], in data set [2], the inhibition in vivo at 28 µmol/kg is 55.8% and the “Edema Inhibition, (%)” value is on record as 55.8 ± 1.9 %. The “Cell growth by comparison” value with MRC-5 cells was at least 98%.
`O=C1N/C(=N\c2nnc(C34CC5CC(CC(C5)C3)C4)s2)S/C1=C\c1c(F)cccc1F` [Compound 11]: the inhibition in vivo at 28 µmol/kg in data set [2] amounted to 60%. The “Cell growth by comparison” value in the data set on MRC-5 cells is reported as at least 98%.
In data set [2], `O=C1N/C(=N\c2nnc(C34CC5CC(CC(C5)C3)C4)s2)S/C1=C\c1cccc(Cl)c1Cl` [Compound 12] registered an inhibition in vivo at 28 µmol/kg of 34.5 ± 1.1%.
On the same count and under the same terms, the figure for `O=C1N/C(=N\c2nnc(C34CC5CC(CC(C5)C3)C4)s2)S/C1=C\c1ccc(Cl)cc1Cl` [Compound 13] is 36 ± 1.8%.
For the molecule `COc1cc(/C=C2\S/C(=N/c3nnc(C45CC6CC(CC(C6)C4)C5)s3)NC2=O)ccc1O` [Compound 15], in data set [2], the inhibition in vivo at 28 µmol/kg amounted to 21.4% and the “Edema Inhibition, (%)” value is 21.4 ± 2.1 %.
For `Cc1onc(-c2ccc(Cl)o2)c1-c1ccccc1` [Compound P6], in data set [1], the “Gastric toxicity (in words)” value is listed as “devoid of any gastric toxicity”.
Regarding `COc1ccc(-c2nc(C(=O)N3CCN(C)CC3)sc2-c2ccc(OC)cc2)cc1` [FR122047], the “Gastric toxicity (in words)” value in data set [1] is “devoid of any gastric toxicity”.
With `COc1ccc2c(c1)c(CC(=O)O)c(C)n2C(=O)c1ccc(Cl)cc1` [Indomethacin, reference compound], the “Number of Animals with Ulcer” value with gastric mucosa is 4/5; with gastric mucosa (listed as indomethacin), “four out of five”.
Take `COc1ccc(-c2noc(CC(=O)O)c2-c2ccc(OC)cc2)cc1` [Mofezolac]: the Ulcer index in data set [1] (dose of 10 mg) is 0.98.
Consider `COc1ccc2c(c1)c(CC(=O)O)c(C)n2C1CCN(C)CC1` [N-methylpiperidinylindole], for which the “Gastric toxicity (in words)” value in data set [1] (in vivo) was “devoid of any gastric toxicity”.
Regarding `COc1ccc2cc([C@H](C)C(=O)O)ccc2c1` [Naproxen, reference compound], the “COX-2 Inhibition, Inhibition (%) 200 μΜ” value in the data set on human recombinant COX-2 amounted to 17.0 ± 2.3 %.
As for `COc1ccc(-n2nc(C(F)(F)F)cc2-c2ccc(Cl)cc2)cc1` [SC-560], the “Gastric toxicity (in words)” value in data set [1] is “devoid of any gastric toxicity”.
For the molecule `Nc1ccc(NC(=O)c2ccc(C(F)(F)F)cc2)cc1` [TFAP], in data set [1] (in vivo), the “Gastric toxicity (in words)” value is “devoid of any gastric toxicity”.
For the molecule `COc1ccc(-c2nc(NCC(=O)O)sc2-c2ccc(OC)cc2)cc1` [diarylthiazole], the “Gastric damage (in words)” value in data set [1] was “low gastric damage”.
